From PubChem BioAssay (NCI)
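Five concentrations, 48 hours, 96-well plates. Abbreviation: GI50, concentration required for 50% inhibition of growth. TGI denotes the concentration required for complete inhibition of growth.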

Experiments:
Assay in all cases: NCI tumour cell line growth inhibition, 48 h
MDA-MB-231 breast = test system: MDA-MB-231 breast
HL-60(TB) leukemia = test system: HL-60(TB) leukemia
SK-MEL-28 melanoma = test system: SK-MEL-28 melanoma
MDA-MB-435 = test system: MDA-MB-435
SNB-19 CNS = test system: SNB-19 CNS
HOP-92 NSCLC = test system: HOP-92 NSCLC
SW-620 colon = test system: SW-620 colon
NCI-H522 lung = test system: NCI-H522 lung
OVCAR-8 ovarian = test system: OVCAR-8 ovarian
SF-295 CNS = test system: SF-295 CNS
HCC-2998 colon = test system: HCC-2998 colon
U251 CNS = test system: U251 CNS
SNB-75 CNS = test system: SNB-75 CNS
HCT-15 colon = test system: HCT-15 colon
SK-MEL-2 melanoma = test system: SK-MEL-2 melanoma
OVCAR-4 ovarian = test system: OVCAR-4 ovarian
HCT-116 colon = test system: HCT-116 colon
RPMI-8226 leukemia = test system: RPMI-8226 leukemia
NCI-H460 lung = test system: NCI-H460 lung
PC-3 prostate = test system: PC-3 prostate
SF-539 CNS = test system: SF-539 CNS
A498 renal = test system: A498 renal
EKVX NSCLC = test system: EKVX NSCLC
LOX IMVI melanoma = test system: LOX IMVI melanoma
TK-10 renal = test system: TK-10 renal
IGROV1 ovarian = test system: IGROV1 ovarian
CAKI-1 renal = test system: CAKI-1 renal
OVCAR-5 ovarian = test system: OVCAR-5 ovarian
BT-549 breast = test system: BT-549 breast
OVCAR-3 ovarian = test system: OVCAR-3 ovarian
SN12C renal = test system: SN12C renal
SK-OV-3 ovarian = test system: SK-OV-3 ovarian
M14 melanoma = test system: M14 melanoma
HS 578T breast = test system: HS 578T breast
HT29 colon = test system: HT29 colon
CCRF-CEM leukemia = test system: CCRF-CEM leukemia
COLO 205 colon = test system: COLO 205 colon
SK-MEL-5 melanoma = test system: SK-MEL-5 melanoma
ACHN renal = test system: ACHN renal
UACC-257 melanoma = test system: UACC-257 melanoma
NCI-H23 lung = test system: NCI-H23 lung
NCI-H226 lung = test system: NCI-H226 lung
MDA-MB-468 breast = test system: MDA-MB-468 breast
RXF 393 renal = test system: RXF 393 renal
SF-268 CNS = test system: SF-268 CNS
DU-145 prostate = test system: DU-145 prostate
A549 NSCLC = test system: A549 NSCLC
KM12 colon = test system: KM12 colon
K-562 leukemia = test system: K-562 leukemia
MOLT-4 leukemia = test system: MOLT-4 leukemia
MCF7 breast = test system: MCF7 breast
HOP-62 NSCLC = test system: HOP-62 NSCLC
MALME-3M melanoma = test system: MALME-3M melanoma
SR leukemia = test system: SR leukemia
UO-31 renal = test system: UO-31 renal
UACC-62 melanoma = test system: UACC-62 melanoma
T-47D breast = test system: T-47D breast
786-0 renal = test system: 786-0 renal

COc1cc(C2C(C(=O)OCc3ccccc3)=C(C)Nc3nc4ccccc4n32)cc(OC)c1OC (centres undefined)
GI50 (MDA-MB-231 breast): 1970 nM
TGI (MDA-MB-231 breast): 4.68 µM
GI50 (HL-60(TB) leukemia): 7.02 µM
TGI (HL-60(TB) leukemia): 76.7 µM
GI50 (SK-MEL-28 melanoma): 5.46 µM
TGI (SK-MEL-28 melanoma): 59 µM
GI50 (MDA-MB-435): 2260 nM
TGI (MDA-MB-435): 6.25 µM
GI50 (SNB-19 CNS): 3.65 µM
TGI (SNB-19 CNS): 15.8 µM
GI50 (HOP-92 NSCLC): 2120 nM
TGI (HOP-92 NSCLC): 6.61 µM
GI50 (SW-620 colon): 6.23 µM
TGI (SW-620 colon): > 100 µM
GI50 (NCI-H522 lung): 2640 nM
TGI (NCI-H522 lung): 10.3 µM
GI50 (OVCAR-8 ovarian): 3.73 µM
TGI (OVCAR-8 ovarian): 14.4 µM
GI50 (SF-295 CNS): 3.35 µM
TGI (SF-295 CNS): 13.2 µM
GI50 (HCC-2998 colon): 14.4 µM
TGI (HCC-2998 colon): > 100 µM
GI50 (U251 CNS): 3.25 µM
TGI (U251 CNS): 11.3 µM
GI50 (SNB-75 CNS): 1000 nM
TGI (SNB-75 CNS): 3.22 µM
GI50 (HCT-15 colon): 5.91 µM
TGI (HCT-15 colon): > 100 µM
GI50 (SK-MEL-2 melanoma): 2610 nM
TGI (SK-MEL-2 melanoma): 7.76 µM
GI50 (OVCAR-4 ovarian): 2410 nM
TGI (OVCAR-4 ovarian): 7.87 µM
GI50 (HCT-116 colon): 3.25 µM
TGI (HCT-116 colon): 10.5 µM
GI50 (RPMI-8226 leukemia): 6.96 µM
TGI (RPMI-8226 leukemia): > 100 µM
GI50 (NCI-H460 lung): 3.87 µM
TGI (NCI-H460 lung): 19.6 µM
GI50 (PC-3 prostate): 6.63 µM
TGI (PC-3 prostate): > 100 µM
GI50 (SF-539 CNS): 1980 nM
TGI (SF-539 CNS): 4.37 µM
GI50 (A498 renal): 1880 nM
TGI (A498 renal): 4.37 µM
GI50 (EKVX NSCLC): 10.8 µM
TGI (EKVX NSCLC): 56.2 µM
GI50 (LOX IMVI melanoma): 3.43 µM
TGI (LOX IMVI melanoma): 12.9 µM
GI50 (TK-10 renal): 2150 nM
TGI (TK-10 renal): 5.4 µM
GI50 (IGROV1 ovarian): 4.42 µM
TGI (IGROV1 ovarian): 30.5 µM
GI50 (CAKI-1 renal): 2450 nM
TGI (CAKI-1 renal): 11.4 µM
GI50 (OVCAR-5 ovarian): 7.88 µM
TGI (OVCAR-5 ovarian): 38.3 µM
GI50 (BT-549 breast): 4.09 µM
TGI (BT-549 breast): 18.1 µM
GI50 (OVCAR-3 ovarian): 2670 nM
TGI (OVCAR-3 ovarian): 7.56 µM
GI50 (SN12C renal): 3.3 µM
TGI (SN12C renal): 21.2 µM
GI50 (SK-OV-3 ovarian): 2460 nM
TGI (SK-OV-3 ovarian): 5.86 µM
GI50 (M14 melanoma): 6.01 µM
TGI (M14 melanoma): 71 µM
GI50 (HS 578T breast): 2250 nM
TGI (HS 578T breast): 7.65 µM
GI50 (HT29 colon): 4.35 µM
TGI (HT29 colon): 22.3 µM
GI50 (CCRF-CEM leukemia): 7.01 µM
TGI (CCRF-CEM leukemia): > 100 µM
GI50 (COLO 205 colon): 12.5 µM
TGI (COLO 205 colon): > 100 µM
GI50 (SK-MEL-5 melanoma): 4.41 µM
TGI (SK-MEL-5 melanoma): 19.5 µM
GI50 (ACHN renal): 2970 nM
TGI (ACHN renal): 9.01 µM
GI50 (UACC-257 melanoma): 11.2 µM
TGI (UACC-257 melanoma): 66.3 µM
GI50 (NCI-H23 lung): 7 µM
TGI (NCI-H23 lung): 29 µM
GI50 (NCI-H226 lung): 2190 nM
TGI (NCI-H226 lung): 6.81 µM
GI50 (MDA-MB-468 breast): 2110 nM
TGI (MDA-MB-468 breast): 5.83 µM
GI50 (RXF 393 renal): 1400 nM
TGI (RXF 393 renal): 4.71 µM
GI50 (SF-268 CNS): 3.22 µM
TGI (SF-268 CNS): 19 µM
GI50 (DU-145 prostate): 7.06 µM
TGI (DU-145 prostate): 55.8 µM
GI50 (A549 NSCLC): 3.28 µM
TGI (A549 NSCLC): 11.4 µM
GI50 (KM12 colon): 3.75 µM
TGI (KM12 colon): 27.4 µM
GI50 (K-562 leukemia): 3.38 µM
TGI (K-562 leukemia): > 100 µM
GI50 (MOLT-4 leukemia): 11.3 µM
TGI (MOLT-4 leukemia): > 100 µM
GI50 (MCF7 breast): 3.56 µM
TGI (MCF7 breast): 17.8 µM
GI50 (HOP-62 NSCLC): 2750 nM
TGI (HOP-62 NSCLC): 9.15 µM
GI50 (MALME-3M melanoma): 1740 nM
TGI (MALME-3M melanoma): 5.71 µM
GI50 (SR leukemia): 3.93 µM
TGI (SR leukemia): > 100 µM
GI50 (UO-31 renal): 2110 nM
TGI (UO-31 renal): 5.27 µM
GI50 (UACC-62 melanoma): 2150 nM
TGI (UACC-62 melanoma): 8.07 µM
GI50 (T-47D breast): 3.15 µM
TGI (T-47D breast): 14.5 µM
GI50 (786-0 renal): 1800 nM
TGI (786-0 renal): 3.56 µM

O=C(/C=C/c1ccncc1)c1cc(Cl)ccc1O
GI50 (MDA-MB-468 breast): 18100 nM
TGI (MDA-MB-468 breast): 33 µM

O=C1c2cc3c(cc2-c2c1c1ccc(F)cc1c(=O)n2CCCNCCO)OCO3
GI50 (MDA-MB-468 breast): 22.8 nM
TGI (MDA-MB-468 breast): 0.0705 µM

CN(C(=O)c1ccc(C(F)(F)F)cc1)c1ccc(Oc2ccc3c(c2)cc(C(=O)N2CCN(Cc4ccc(OC(F)F)cc4)CC2)n3C)nc1
GI50 (MDA-MB-468 breast): < 10 nM
TGI (MDA-MB-468 breast): 28.6 µM

COc1ccc(-c2nnc(COc3ccc(C(=O)/C=C/c4ccco4)cc3)o2)cc1
GI50 (MDA-MB-468 breast): 1890 nM
TGI (MDA-MB-468 breast): 4.12 µM
